Laboratory results taken from ChEMBL document CHEMBL1149021, “Vasoactive substances from Saussurea lappa” (J Nat Prod, 1986).
Activity calls are given as the source filed them. No cut-off for these calls is given here.

Organism: Oryctolagus cuniculus
Test: Vasorelaxant activity in rabbit aorta assessed as inhibition of KCl-induced contraction
Format: functional, tissue-based

Structure (SMILES) | Activity
C=C1C(=O)O[C@@H]2/C=C(\C)CC/C=C(\C)CC[C@@H]12 | Active
C=C1CC[C@H]2C(=C)C(=O)O[C@@H]2C2C(=C)CCC12 (some centres not stated) | Active
